Test results as given in US8574563B2 (Bristol-Myers Squibb Company, priority 2006, dated 2013).
Where two headings read alike, the source gives them in different places.

System: HCV 1b-377-neo replicon cells
Assay: HCV replicon assay, HCV 1b-377-neo replicon cells (1b FRET)
Type: cell-based, Hepatitis C virus genotype 1b
Conditions: HCV 1b-377-neo replicon cells, HCV 1b genotype, read-out: EC50 range against HCV 1b (Table 2, Range)
How it was run: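 FRET-based replicon assay in HCV 1b-377-neo cells, including a comparison line carrying the NS5A Y2065H mutation that confers resistance to a reference compound.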

Structure (SMILES) | EC50 (Hepatitis C virus) [nM] | EC50 [nM]
COC(=O)N[C@@H](C(=O)N1CCC[C@H]1c1ncc(-c2ccc(-c3ccc(-c4cnc([C@@H]5CCCN5C(=O)[C@H](C)c5ccccc5)[nH]4)cc3)cc2)[nH]1)c1ccccc1 [Example 84-76, methyl ((1R)-2-oxo-1-phenyl-2-((2S)-2-(5-(4′-(2-((2S)-1-((2R)-2-phenylpropanoyl)-2-pyrrolidinyl)-1H-imidazol-5-yl)-4-biphenylyl)-1H-imidazol-2-yl)-1-pyrrolidinyl)ethyl)carbamate] | 0.001 to 0.999 | –
COC(=O)N[C@@H](C(=O)N1CCC[C@H]1c1ncc(-c2ccc(-c3ccc(-c4cnc([C@@H]5CCCN5C(=O)C5(c6ccccc6)CC5)[nH]4)cc3)cc2)[nH]1)c1ccccc1 [Example 84-77, methyl ((1R)-2-oxo-1-phenyl-2-((2S)-2-(5-(4′-(2-((2S)-1-((1-phenylcyclopropyl)carbonyl)-2-pyrrolidinyl)-1H-imidazol-5-yl)-4-biphenylyl)-1H-imidazol-2-yl)-1-pyrrolidinyl)ethyl)carbamate] | 0.001 to 0.999 | –
COC(=O)N[C@@H](C(=O)N1CCC[C@H]1c1ncc(-c2ccc(-c3ccc(-c4cnc([C@@H]5CCCN5C(=O)C5(c6ccc(Cl)cc6)CC5)[nH]4)cc3)cc2)[nH]1)c1ccccc1 [Example 84-78, methyl ((1R)-2-((2S)-2-(5-(4′-(2-((2S)-1-((1-(4-chlorophenyl)cyclopropyl)carbonyl)-2-pyrrolidinyl)-1H-imidazol-5-yl)-4-biphenylyl)-1H-imidazol-2-yl)-1-pyrrolidinyl)-2-oxo-1-phenylethyl)carbamate] | 0.001 to 0.999 | –
COC(=O)N[C@@H](C(=O)N1CCC[C@H]1c1ncc(-c2ccc(-c3ccc(-c4cnc([C@@H]5CCCN5C(=O)C(C)(C)c5ccc(Cl)cc5)[nH]4)cc3)cc2)[nH]1)c1ccccc1 [Example 84-79, methyl ((1R)-2-((2S)-2-(5-(4′-(2-((2S)-1-(2-(4-chlorophenyl)-2-methylpropanoyl)-2-pyrrolidinyl)-1H-imidazol-5-yl)-4-biphenylyl)-1H-imidazol-2-yl)-1-pyrrolidinyl)-2-oxo-1-phenylethyl)carbamate] | 0.001 to 0.999 | –
COC(=O)N[C@@H](C(=O)N1CCC[C@H]1c1ncc(-c2ccc(-c3ccc(-c4cnc([C@@H]5CCCN5C(=O)[C@H](OC)c5ccccc5)[nH]4)cc3)cc2)[nH]1)c1ccccc1 [Example 84-80, methyl ((1R)-2-((2S)-2-(5-(4′-(2-((2S)-1-((2R)-2-methoxy-2-phenylacetyl)-2-pyrrolidinyl)-1H-imidazol-5-yl)-4-biphenylyl)-1H-imdiazol-2-yl)-1-pyrrolidinyl)-2-oxo-1-phenylethyl)carbamate] | – | 0.001 to 0.999
COC(=O)N[C@@H](C(=O)N1CCC[C@H]1c1ncc(-c2ccc(-c3ccc(-c4cnc([C@@H]5CCCN5C(=O)[C@@](OC)(c5ccccc5)C(F)(F)F)[nH]4)cc3)cc2)[nH]1)c1ccccc1 [Example 84-81, methyl ((1R)-2-oxo-1-phenyl-2-((2S)-2-(5-(4′-(2-((2S)-1-((2S)-3,3,3-trifluoro-2-methoxy-2-phenylpropanoyl)-2-pyrrolidinyl)-1H-imidazol-5-yl)-4-biphenylyl)-1H-imidazol-2-yl)-1-pyrrolidinyl)ethyl)carbamate] | 0.001 to 0.999 | –
COC(=O)N[C@@H](C(=O)N1CCC[C@H]1c1ncc(-c2ccc(-c3ccc(-c4cnc([C@@H]5CCCN5C(=O)[C@H](OC(C)=O)c5ccccc5)[nH]4)cc3)cc2)[nH]1)c1ccccc1 [Example 84-82, (1R)-2-((2S)-2-(5-(4′-(2-((2S)-1-((2R)-2-((methoxycarbonyl)amino)-2-phenylacetyl)-2-pyrrolidinyl)-1H-imidazol-5-yl)-4-biphenylyl)-1H-imidazol-2-yl)-1-pyrrolidinyl)-2-oxo-1-phenylethyl acetate] | 0.001 to 0.999 | –
COC(=O)N[C@@H](C(=O)N1CCC[C@H]1c1ncc(-c2ccc(-c3ccc(-c4cnc([C@@H]5CCCN5C(=O)[C@@H](OC(C)=O)c5ccccc5)[nH]4)cc3)cc2)[nH]1)c1ccccc1 [Example 84-83, (1S)-2-((2S)-2-(5-(4′-(2-((2S)-1-((2R)-2-((methoxycarbonyl)amino)-2-phenylacetyl)-2-pyrrolidinyl)-1H-imidazol-5-yl)-4-biphenylyl)-1H-imidazol-2-yl)-1-pyrrolidinyl)-2-oxo-1-phenylethyl acetate] | 0.001 to 0.999 | –
COC(=O)N[C@@H](C(=O)N1CCC[C@H]1c1ncc(-c2ccc(-c3ccc(-c4cnc([C@@H]5CCCN5C(=O)Cc5ccccc5CN5CCOCC5)[nH]4)cc3)cc2)[nH]1)c1ccccc1 [Example 84-84, methyl ((1R)-2-((2S)-2-(5-(4′-(2-((2S)-1-((2-(4-morpholinylmethyl)phenyl)acetyl)-2-pyrrolidinyl)-1H-imidazol-5-yl)-4-biphenylyl)-1H-imidazol-2-yl)-1-pyrrolidinyl)-2-oxo-1-phenylethyl)carbamate] | 0.001 to 0.999 | –
COC(=O)N[C@@H](C(=O)N1CCC[C@H]1c1ncc(-c2ccc(-c3ccc(-c4cnc([C@@H]5CCCN5C(=O)Cc5ccccc5CN5CCCCC5)[nH]4)cc3)cc2)[nH]1)c1ccccc1 [Example 84-85, methyl ((1R)-2-oxo-1-phenyl-2-((2S)-2-(5-(4′-(2-((2S)-1-((2-(1-piperidinylmethyl)phenyl)acetyl)-2-pyrrolidinyl)-1H-imidazol-5-yl)-4-biphenylyl)-1H-imidazol-2-yl)-1-pyrrolidinyl)ethyl)carbamate] | – | 0.001 to 0.999
COC(=O)N[C@@H](C(=O)N1CCC[C@H]1c1ncc(-c2ccc(-c3ccc(-c4cnc([C@@H]5CCCN5C(=O)Cc5ccccc5CN5CCCC5)[nH]4)cc3)cc2)[nH]1)c1ccccc1 [Example 84-86, methyl ((1R)-2-oxo-1-phenyl-2-((2S)-2-(5-(4′-(2-((2S)-1-((2-(1-pyrrolidinylmethyl)phenyl)acetyl)-2-pyrrolidinyl)-1H-imidazol-5-yl)-4-biphenylyl)-1H-imidazol-2-yl)-1-pyrrolidinyl)ethyl)carbamate] | – | 0.001 to 0.999
COC(=O)N[C@@H](C(=O)N1CCC[C@H]1c1ncc(-c2ccc(-c3ccc(-c4cnc([C@@H]5CCCN5C(=O)Cc5ccccc5CN(C)C)[nH]4)cc3)cc2)[nH]1)c1ccccc1 [Example 84-87, methyl ((1R)-2-((2S)-2-(5-(4′-(2-((2S)-1-((2-((dimethylamino)methyl)phenyl)acetyl)-2-pyrrolidinyl)-1H-imidazol-5-yl)-4-biphenylyl)-1H-imidazol-2-yl)-1-pyrrolidinyl)-2-oxo-1-phenylethyl)carbamate] | 0.001 to 0.999 | –
CN(C)[C@@H](C(=O)N1CCC[C@H]1c1ncc(-c2ccc(-c3ccc(-c4cnc([C@@H]5CCCN5C(=O)Cc5cccnc5)[nH]4)cc3)cc2)[nH]1)c1ccccc1 [Example 85, (1R)-N,N-dimethyl-2-oxo-1-phenyl-2((2S)-2-(5-(4′-(2-((2S)-1-(3-pyridinylacetyl)-2-pyrrolidinyl)-1H-imidazol-5-yl)-4-biphenylyl)-1H-imidazol-2-yl)-1-pyrrolidinyl)ethanamine] | 0.001 to 0.999 | –
CN(C)[C@@H](C(=O)N1CCC[C@H]1c1ncc(-c2ccc(-c3ccc(-c4cnc([C@@H]5CCCN5C(=O)[C@H]5CCCO5)[nH]4)cc3)cc2)[nH]1)c1ccccc1 [Example 86, (1R)-N,N-dimethyl-2-oxo-1-phenyl-2-((2S)-2-(5-(4′-(2-((2S)-1-((2R)-tetrahydro-2-furanylcarbonyl)-2-pyrrolidinyl)-1H-imidazol-5-yl)-4-biphenylyl)-1H-imidazol-2-yl)-1-pyrrolidinyl)ethanamine] | 0.001 to 0.999 | –
CN(C)[C@@H](C(=O)N1CCC[C@H]1c1ncc(-c2ccc(-c3ccc(-c4cnc([C@@H]5CCCN5C(=O)[C@@H]5CCCO5)[nH]4)cc3)cc2)[nH]1)c1ccccc1 [Example 87, (1R)-N,N-dimethyl-2-oxo-1-phenyl-2-((2S)-2-(5-(4′-(2-((2S)-1-((2S)-tetrahydro-2-furanylcarbonyl)-2-pyrrolidinyl)-1H-imidazol-5-yl)-4-biphenylyl)-1H-imidazol-2-yl)-1-pyrrolidinyl)ethanamine] | 0.001 to 0.999 | –
CN(C)[C@@H](C(=O)N1CCC[C@H]1c1ncc(-c2ccc(-c3ccc(-c4cnc([C@@H]5CCCN5C(=O)Cc5cn(C)cn5)[nH]4)cc3)cc2)[nH]1)c1ccccc1 [Example 88, (1R)-N,N-dimethyl-2-((2S)-2-(5-(4′-(2-((2S)-1-((1-methyl-1H-imidazol-4-yl)acetyl)-2-pyrrolidinyl)-1H-imidazol-5-yl)-4-biphenylyl)-1H-imidazol-2-yl)-1-pyrrolidinyl)-2-oxo-1-phenylethanamine] | 0.001 to 0.999 | –
CN(C)[C@@H](C(=O)N1CCC[C@H]1c1ncc(-c2ccc(-c3ccc(-c4cnc([C@@H]5CCCN5C(=O)[C@@H](c5ccccc5)N5CCCC5)[nH]4)cc3)cc2)[nH]1)c1ccccc1 [Example 90, (1R)-N,N-dimethyl-2-oxo-1-phenyl-2-((2S)-2-(5-(4′-(2-((2S)-1-((2R)-2-phenyl-2-(1-pyrrolidinyl)acetyl)-2-pyrrolidinyl)-1H-imidazol-5-yl)-4-biphenylyl)-1H-imidazol-2-yl)-1-pyrrolidinyl)ethanamine] | 0.001 to 0.999 | –
COC(=O)N[C@@H](C)C(=O)N1CCC[C@H]1c1ncc(-c2ccc(-c3ccc(-c4cnc([C@@H]5CCCN5C(=O)[C@@H](c5ccccc5)N(C)C)[nH]4)cc3)cc2)[nH]1 [Example 92, methyl ((1S)-2-((2S)-2-(5-(4′-(2-((2S)-1-((2R)-2-(dimethylamino)-2-phenylacetyl)-2-pyrrolidinyl)-1H-imidazol-5-yl)-4-biphenylyl)-1H-imidazol-2-yl)-1-pyrrolidinyl)-1-methyl-2-oxoethyl)carbamate] | 0.001 to 0.999 | –
CN(C)[C@@H](C(=O)N1CCC[C@H]1c1ncc(-c2ccc(-c3ccc(-c4cnc([C@@H]5CCCN5C(=O)N5CCOCC5)[nH]4)cc3)cc2)[nH]1)c1ccccc1 [Example 93, (1R)-N,N-dimethyl-2-((2S)-2-(5-(4′-(2-((2S)-1-(4-morpholinylcarbonyl)-2-pyrrolidinyl)-1H-imidazol-5-yl)-4-biphenylyl)-1H-imidazol-2-yl)-1-pyrrolidinyl)-2-oxo-1-phenylethanamine] | 0.001 to 0.999 | –
